According to patent US20170190671A1, “BIS(ARYL)CATECHOL DERIVATIVES AS HERBICIDES” (E I DU PONT DE NEMOURS AND COMPANY, priority 2014, published 2017):

Tests used:
Type in all cases: in vivo
[1] = test system: sedge, umbrella (small-flower umbrella sedge, Cyperus difformis); assay: Test B flooded paddy; details: Cyperus difformis, 336 h; 250 g ai/ha, Flood, 13 to 15 days, scale 0 (no effect) to 100 (complete control); read-out: Plant response rating, Sedge, Umbrella
Procedure, shortened: (§1)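 Visual injury ratings against untreated controls, taken 13 to 15 days after compound was added to paddy water standing 3 cm above the soil.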

rice (Oryza sativa) = assay: Test B flooded paddy; details: Oryza sativa, 336 h; 250 g ai/ha, Flood, 13 to 15 days, scale 0 (no effect) to 100 (complete control); read-out: Plant response rating, Rice
Procedure, shortened: as §1

[2] = test system: barnyardgrass (Echinochloa crus-galli); assay: Test B flooded paddy; details: Echinochloa crus-galli, 336 h; 250 g ai/ha, Flood, 13 to 15 days, scale 0 (no effect) to 100 (complete control); read-out: Plant response rating, Barnyardgrass
Procedure, shortened: as §1

[3] = test system: ducksalad (Heteranthera limosa); assay: Test B flooded paddy; details: Heteranthera limosa, 336 h; 250 g ai/ha, Flood, 13 to 15 days, scale 0 (no effect) to 100 (complete control); read-out: Plant response rating, Ducksalad
Procedure, shortened: as §1

[4] = test system: barnyardgrass (Echinochloa crus-galli); assay: Test A postemergence; details: Echinochloa crus-galli, post-emergence, 240 h, 0 to 100 scale, read-out: Plant response rating, Barnyardgrass
Procedure, shortened: (§2)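 Compounds in non-phytotoxic solvent with surfactant applied as soil spray preemergence, or postemergence to plants 2-10 cm at one- to two-leaf stage, in loam/sand. After approximately 10 days in greenhouse, injury rated visually versus untreated controls, 0 (no effect) to 100 (complete control).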

[5] = test system: blackgrass (Alopecurus myosuroides); assay: Test A postemergence; details: Alopecurus myosuroides, post-emergence, 240 h, 0 to 100 scale, read-out: Plant response rating, Blackgrass
Procedure, shortened: as §2

[6] = test system: galium (catchweed bedstraw, Galium aparine); assay: Test A postemergence; details: Galium, post-emergence, 240 h, 0 to 100 scale, read-out: Plant response rating, Galium
Procedure, shortened: as §2

[7] = test system: pigweed (Amaranthus retroflexus); assay: Test A postemergence; details: Amaranthus retroflexus, post-emergence, 240 h, 0 to 100 scale, read-out: Plant response rating, Pigweed
Procedure, shortened: as §2

[8] = test system: wheat (Triticum aestivum); assay: Test A postemergence; details: Triticum aestivum, post-emergence, 240 h, 0 to 100 scale, read-out: Plant response rating, Wheat
Procedure, shortened: as §2

corn (Zea mays) = assay: Test A postemergence; details: Zea mays, post-emergence, 240 h, 0 to 100 scale
Procedure, shortened: as §2

kochia (Kochia scoparia) [9] = assay: Test A postemergence; details: Bassia scoparia, post-emergence, 240 h, 0 to 100 scale, read-out: Plant response rating, Kochia
Procedure, shortened: as §2

[10] = test system: giant foxtail (Setaria faberii); assay: Test A postemergence; details: Setaria faberi, post-emergence, 240 h, 0 to 100 scale, read-out: Plant response rating, Foxtail, Giant
Procedure, shortened: as §2

[11] = test system: ragweed (common ragweed, Ambrosia elatior); assay: Test A postemergence; details: Ambrosia artemisiifolia, post-emergence, 240 h, 0 to 100 scale, read-out: Plant response rating, Ragweed
Procedure, shortened: as §2

[12] = test system: Italian ryegrass (Lolium multiflorum); assay: Test A postemergence; details: Lolium multiflorum, post-emergence, 240 h, 0 to 100 scale, read-out: Plant response rating, Ryegrass, Italian
Procedure, shortened: as §2

[13] = test system: galium (catchweed bedstraw, Galium aparine); assay: Test C preemergence; details: Galium, pre-emergence, 336 h, preemergence, scale 0 to 100, read-out: Plant response rating, Galium
Excerpt: (§3) Seeds of plant species selected from blackgrass (Alopecurus myosuroides), Italian ryegrass (Lolium multiflorum), winter wheat (Triticum aestivum), galium (catchweed bedstraw, Galium aparine), corn (Zea mays), large (Lg) crabgrass (Digitaria sanguinalis), giant foxtail (Setaria faberii), johnsongrass (Sorghum halepense), lambsquarters (Chenopodium album), morningglory (Ipomoea coccinea), yellow nutsedge (Cyperus esculentus), pigweed (Amaranthus retroflexus), ragweed (common ragweed, Ambrosia elatior), soybean (Glycine max), barnyardgrass (Echinochloa crus-galli), oilseed rape (Brassica napus), waterhemp (common waterhemp, Amaranthus rudis), and velvetleaf (Abutilon theophrasti) were planted into a blend of loam soil and sand and treated preemergence with test chemicals formulated in a non-phytotoxic solvent mixture which included a surfactant.
(§4) At the same time, plants selected from these crop and weed species and also chickweed (common chickweed, Stellaria media), kochia (Kochia scoparia), and wild oat (Avena fatua), were planted in pots containing Redi-Earth® planting medium (Scotts Company, 14111 Scottslawn Road, Marysville, Ohio 43041) comprising spaghnum peat moss, vermiculite, wetting agent and starter nutrients and treated with postemergence applications of test chemicals formulated in the same manner. Plants ranged in height from 2 to 18 cm (1- to 4-leaf stage) for postemergence treatments. Treated plants and controls were maintained in a greenhouse for 13 to 15 days, after which time all species were compared to controls and visually evaluated. Plant response ratings, summarized in Table C, are based on a scale of 0 to 100 where 0 is no effect and 100 is complete control. A dash (-) response means no test result.

[14] = test system: ragweed (common ragweed, Ambrosia elatior); assay: Test C preemergence; details: Ambrosia artemisiifolia, pre-emergence, 336 h, preemergence, scale 0 to 100, read-out: Plant response rating, Ragweed
Excerpt: as §3, §4

[15] = test system: barnyardgrass (Echinochloa crus-galli); assay: Test A preemergence; details: Echinochloa crus-galli, pre-emergence, 240 h
Procedure, shortened: as §2

[16] = test system: pigweed (Amaranthus retroflexus); assay: Test A preemergence; details: Amaranthus retroflexus, pre-emergence, 240 h
Procedure, shortened: as §2

kochia (Kochia scoparia) [17] = assay: Test A preemergence; details: Bassia scoparia, pre-emergence, 240 h
Procedure, shortened: as §2

[18] = test system: giant foxtail (Setaria faberii); assay: Test A preemergence; details: Setaria faberi, pre-emergence, 240 h
Procedure, shortened: as §2

[19] = test system: ragweed (common ragweed, Ambrosia elatior); assay: Test A preemergence; details: Ambrosia artemisiifolia, pre-emergence, 240 h
Procedure, shortened: as §2

[20] = test system: Italian ryegrass (Lolium multiflorum); assay: Test A preemergence; details: Lolium multiflorum, pre-emergence, 240 h
Procedure, shortened: as §2

## N#Cc1cccc(Oc2ncc(Br)cn2)c1Oc1ncc(Cl)cn1 [Compound 5, 3-[(5-bromo-2-pyrimidinyl)oxy]-2-[(5-chloro-2-pyrimidinyl)oxy]benzonitrile]
[1]
  pest or weed control at 250 g/ha: 75%
Rice (Oryza sativa)
  plant injury at 250 g/ha: 0%
[2]
  pest or weed control at 250 g/ha: 35%
[3]
  pest or weed control at 250 g/ha: 100%
[4]; 31 g ai/ha
  pest or weed control at 31 g/ha: 20%
[4]; 125 g ai/ha
  pest or weed control at 125 g/ha: 90%
[5]; 31 g ai/ha
  pest or weed control at 31 g/ha: 40%
[5]; 125 g ai/ha
  pest or weed control at 125 g/ha: 90%
[6]; 31 g ai/ha
  pest or weed control at 31 g/ha: 50%
[6]; 125 g ai/ha
  pest or weed control at 125 g/ha: 90%
[7]; 31 g ai/ha
  pest or weed control at 31 g/ha: 70%
[7]; 125 g ai/ha
  pest or weed control at 125 g/ha: 100%
[8]; 31 g ai/ha
  plant injury at 31 g/ha: 20%
[8]; 125 g ai/ha
  plant injury at 125 g/ha: 40%
Corn (Zea mays); 31 g ai/ha
  Corn plant response rating (crop injury, 0 = no effect, 100 = complete kill) at 31 g/ha: 20%
Corn (Zea mays); 125 g ai/ha
  Corn plant response rating (crop injury, 0 = no effect, 100 = complete kill) at 125 g/ha: 80%
Kochia (Kochia scoparia) [9]; 31 g ai/ha
  pest or weed control at 31 g/ha: 70%
Kochia (Kochia scoparia) [9]; 125 g ai/ha
  pest or weed control at 125 g/ha: 100%
[10]; 31 g ai/ha
  pest or weed control at 31 g/ha: 10%
[10]; 125 g ai/ha
  pest or weed control at 125 g/ha: 90%
[11]; 31 g ai/ha
  pest or weed control at 31 g/ha: 20%
[11]; 125 g ai/ha
  pest or weed control at 125 g/ha: 40%
[12]; 31 g ai/ha
  pest or weed control at 31 g/ha: 20%
[12]; 125 g ai/ha
  pest or weed control at 125 g/ha: 50%
[13]; 31 g ai/ha
  pest or weed control at 31 g/ha: 50%
[13]; 62 g ai/ha
  pest or weed control at 62 g/ha: 100%
[13]; 125 g ai/ha
  pest or weed control at 125 g/ha: 100%
[14]; 31 g ai/ha
  pest or weed control at 31 g/ha: 20%
[14]; 62 g ai/ha
  pest or weed control at 62 g/ha: 80%
[14]; 125 g ai/ha
  pest or weed control at 125 g/ha: 100%
[15]; 31 g ai/ha, 0 to 100 scale (0 no effect, 100 complete control), read-out: Barnyardgrass plant response rating
  pest or weed control at 31 g/ha: 20%
[15]; 125 g ai/ha, 0 to 100 scale, read-out: Plant response rating, Barnyardgrass
  pest or weed control at 125 g/ha: 80%
[16]; 31 g ai/ha, 0 to 100 scale (0 no effect, 100 complete control), read-out: Pigweed plant response rating
  pest or weed control at 31 g/ha: 100%
[16]; 125 g ai/ha, 0 to 100 scale, read-out: Plant response rating, Pigweed
  pest or weed control at 125 g/ha: 100%
Kochia (Kochia scoparia) [17]; 31 g ai/ha, 0 to 100 scale (0 no effect, 100 complete control), read-out: Kochia plant response rating
  pest or weed control at 31 g/ha: 100%
Kochia (Kochia scoparia) [17]; 125 g ai/ha, 0 to 100 scale, read-out: Plant response rating, Kochia
  pest or weed control at 125 g/ha: 100%
[18]; 31 g ai/ha, 0 to 100 scale (0 no effect, 100 complete control), read-out: Foxtail, Giant plant response rating
  pest or weed control at 31 g/ha: 90%
[18]; 125 g ai/ha, 0 to 100 scale, read-out: Plant response rating, Foxtail, Giant
  pest or weed control at 125 g/ha: 100%
[19]; 31 g ai/ha, 0 to 100 scale (0 no effect, 100 complete control), read-out: Ragweed plant response rating
  pest or weed control at 31 g/ha: 0%
[19]; 125 g ai/ha, 0 to 100 scale, read-out: Plant response rating, Ragweed
  pest or weed control at 125 g/ha: 20%
[20]; 31 g ai/ha, 0 to 100 scale (0 no effect, 100 complete control), read-out: Ryegrass, Italian plant response rating
  pest or weed control at 31 g/ha: 0%
[20]; 125 g ai/ha, 0 to 100 scale, read-out: Plant response rating, Ryegrass, Italian
  pest or weed control at 125 g/ha: 60%
